Data reported in the NIST ThermoML archive (doi:10.1021/acs.jced.7b00740).
± gives the expanded uncertainty stated by the source.

Assays:
[1] = refractive index (Na D-line) (dimensionless); details: 298.15 K; 101.33 kPa; Liquid; Standard Abbe refractometry
[2] = Liquid; for mass density: 293.15 K, 101.33 kPa, Pycnometric method; for vapor or sublimation pressure: Ebulliometric method (Recirculating still)

refractive index [1]	mass density [2] [kg/m3]	vapor or sublimation pressure ([2]; 386.53 K) [kPa]	vapor or sublimation pressure ([2]; 370.42 K) [kPa]	vapor or sublimation pressure ([2]; 366.13 K) [kPa]	vapor or sublimation pressure ([2]; 351.51 K) [kPa]	vapor or sublimation pressure ([2]; 378 K) [kPa]	vapor or sublimation pressure ([2]; 390.92 K) [kPa]	Structure (SMILES)
1.3818 ± 0.0005	831.1 ± 0.7	101.33 ± 1	–	–	–	–	–	CCCOCOCC [1-(ethoxymethoxy)propane]
1.3835 ± 0.0005	803.6 ± 0.7	–	101.33 ± 1	–	–	–	–	CCCO [propan-1-ol]
1.3757 ± 0.0005	841.2 ± 0.7	–	–	101.33 ± 1	–	–	–	CCCOCOC [1-(methoxymethoxy)propane]
1.3595 ± 0.0005	789.2 ± 0.7	–	–	–	101.33 ± 1	–	–	CCO [ethanol]
1.379 ± 0.0005	958 ± 0.8	–	–	–	–	101.33 ± 1	–	COCOCOC [2,4,6-trioxaheptane]
1.3971 ± 0.0005	809.5 ± 0.7	–	–	–	–	–	101.33 ± 1	CCCCO [butan-1-ol]
